Reference: ChEMBL document CHEMBL5465560, “Selectivity Literature for EUbOPEN Chemogenomic Library” (2024)
Values belong to the compound of their own block, whether it stands above or below them.

How the values were obtained:
[1] = target: Tyrosine-protein kinase Lck (Homo sapiens, UniProt P06239); assay: Selectivity interaction (TR-FRET binding assay) EUB0000644a LCK
[2] = target: Vascular endothelial growth factor receptor 2 (Homo sapiens, UniProt P35968); assay: Selectivity interaction (TR-FRET binding assay) EUB0000644a KDR
CDK8/Cyclin C = CDK8/Cyclin C (Homo sapiens, UniProt P49336); assay: Selectivity interaction (TR-FRET binding assay) EUB0000644a CDK8; assay type: protein-complex assay
Chain of CDK8/Cyclin C (P49336 whole entry): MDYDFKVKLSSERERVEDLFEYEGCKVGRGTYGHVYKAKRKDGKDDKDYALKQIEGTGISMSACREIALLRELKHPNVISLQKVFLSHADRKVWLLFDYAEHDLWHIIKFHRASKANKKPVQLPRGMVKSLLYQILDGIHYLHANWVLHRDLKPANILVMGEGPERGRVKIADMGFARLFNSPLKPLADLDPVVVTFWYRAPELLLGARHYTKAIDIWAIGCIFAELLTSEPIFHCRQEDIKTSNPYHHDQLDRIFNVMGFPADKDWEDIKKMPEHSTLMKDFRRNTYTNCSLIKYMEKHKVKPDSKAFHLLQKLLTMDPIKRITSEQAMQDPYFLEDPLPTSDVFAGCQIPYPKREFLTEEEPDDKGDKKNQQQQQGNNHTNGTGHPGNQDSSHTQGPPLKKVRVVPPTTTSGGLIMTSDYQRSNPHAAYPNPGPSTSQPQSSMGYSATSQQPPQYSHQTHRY
Chain of CDK8/Cyclin C (P24863 whole entry, further chain): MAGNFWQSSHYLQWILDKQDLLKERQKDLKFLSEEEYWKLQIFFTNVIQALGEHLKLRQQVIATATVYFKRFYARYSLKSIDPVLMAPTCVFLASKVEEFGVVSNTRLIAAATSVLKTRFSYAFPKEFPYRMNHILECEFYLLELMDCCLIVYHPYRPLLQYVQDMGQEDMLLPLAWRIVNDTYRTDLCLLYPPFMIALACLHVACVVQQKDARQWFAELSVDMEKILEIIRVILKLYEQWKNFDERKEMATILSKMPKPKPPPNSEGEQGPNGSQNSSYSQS

[3] = target: Tyrosine-protein kinase ABL1 (Homo sapiens, UniProt P00519); assay: Selectivity interaction (TR-FRET binding assay) EUB0000644a ABL1
[4] = target: Cyclin-dependent kinase 2 (Homo sapiens, UniProt P24941); assay: Selectivity interaction (TR-FRET binding assay) EUB0000644a CDK2
[5] = target: Ribosomal protein S6 kinase alpha-3 (Homo sapiens, UniProt P51812); assay: Selectivity interaction (TR-FRET binding assay) EUB0000644a RPS6KA3
[6] = target: Mitogen-activated protein kinase 8 (Homo sapiens, UniProt P45983); assay: Selectivity interaction (TR-FRET binding assay) EUB0000644a MAPK8
Chain of Mitogen-activated protein kinase 8 (P45983 whole entry): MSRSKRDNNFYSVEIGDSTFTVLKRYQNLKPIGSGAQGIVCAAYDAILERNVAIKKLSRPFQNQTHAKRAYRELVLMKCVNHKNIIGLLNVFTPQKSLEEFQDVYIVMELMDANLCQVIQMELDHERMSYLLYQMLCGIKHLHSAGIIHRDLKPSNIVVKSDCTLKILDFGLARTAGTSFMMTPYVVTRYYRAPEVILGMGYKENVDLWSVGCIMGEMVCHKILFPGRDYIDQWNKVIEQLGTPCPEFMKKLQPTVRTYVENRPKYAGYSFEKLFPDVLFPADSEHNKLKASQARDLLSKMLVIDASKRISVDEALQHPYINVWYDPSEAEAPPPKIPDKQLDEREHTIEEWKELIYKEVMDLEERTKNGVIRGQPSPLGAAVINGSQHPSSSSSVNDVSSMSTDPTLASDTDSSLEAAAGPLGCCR

[7] = target: 5'-AMP-activated protein kinase catalytic subunit alpha-1 (Homo sapiens, UniProt Q13131); assay: Selectivity interaction (TR-FRET binding assay) EUB0000644a PRKAA1
Aurora kinase B = Aurora kinase B (Homo sapiens, UniProt Q96GD4); assay: Selectivity interaction (TR-FRET binding assay) EUB0000644a AURKB
[8] = target: Tyrosine-protein kinase BTK (Homo sapiens, UniProt Q06187); assay: Selectivity interaction (TR-FRET binding assay) EUB0000644a BTK
[9] = target: Tyrosine-protein kinase SYK (Homo sapiens, UniProt P43405); assay: Selectivity interaction (TR-FRET binding assay) EUB0000644a SYK
[10] = target: Hepatocyte growth factor receptor (Homo sapiens, UniProt P08581); assay: Selectivity interaction (TR-FRET binding assay) EUB0000644a MET
[11] = target: Mitogen-activated protein kinase 14 (Homo sapiens, UniProt Q16539); assay: Selectivity interaction (TR-FRET binding assay) EUB0000644a MAPK14
CDK7/Cyclin H/MNAT1 = CDK7/Cyclin H/MNAT1 (Homo sapiens, UniProt P50613); assay: Selectivity interaction (TR-FRET binding assay) EUB0000644a […]; assay type: protein-complex assay
[12] = target: G protein-coupled receptor kinase 5 (Homo sapiens, UniProt P34947); assay: Selectivity interaction (TR-FRET binding assay) EUB0000644a GRK5
Chain of G protein-coupled receptor kinase 5 (P34947 whole entry): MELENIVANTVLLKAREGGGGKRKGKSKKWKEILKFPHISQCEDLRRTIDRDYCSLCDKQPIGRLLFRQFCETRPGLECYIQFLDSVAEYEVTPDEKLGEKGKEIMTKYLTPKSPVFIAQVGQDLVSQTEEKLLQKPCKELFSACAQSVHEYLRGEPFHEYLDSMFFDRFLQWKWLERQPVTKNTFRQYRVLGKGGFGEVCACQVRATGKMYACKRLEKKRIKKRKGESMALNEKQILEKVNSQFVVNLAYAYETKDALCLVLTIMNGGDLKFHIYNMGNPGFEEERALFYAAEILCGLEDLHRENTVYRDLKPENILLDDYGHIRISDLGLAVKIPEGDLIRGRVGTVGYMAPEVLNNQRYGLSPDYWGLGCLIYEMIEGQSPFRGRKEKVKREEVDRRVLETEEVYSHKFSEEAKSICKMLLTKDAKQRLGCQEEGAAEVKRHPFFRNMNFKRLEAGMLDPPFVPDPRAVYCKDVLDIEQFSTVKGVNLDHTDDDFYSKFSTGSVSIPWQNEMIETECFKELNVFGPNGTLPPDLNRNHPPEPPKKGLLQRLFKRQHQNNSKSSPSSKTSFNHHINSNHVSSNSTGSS

[13] = target: Cyclin-dependent kinase 11A (Homo sapiens, UniProt Q9UQ88); assay: Selectivity interaction (TR-FRET binding assay) EUB0000644a CDK11A
[14] = target: cAMP-dependent protein kinase catalytic subunit alpha (Homo sapiens, UniProt P17612); assay: Selectivity interaction (TR-FRET binding assay) EUB0000644a PRKACA
[15] = target: ALK tyrosine kinase receptor (Homo sapiens, UniProt Q9UM73); assay: Selectivity interaction (TR-FRET binding assay) EUB0000644a ALK
Chain of ALK tyrosine kinase receptor (Q9UM73 whole entry): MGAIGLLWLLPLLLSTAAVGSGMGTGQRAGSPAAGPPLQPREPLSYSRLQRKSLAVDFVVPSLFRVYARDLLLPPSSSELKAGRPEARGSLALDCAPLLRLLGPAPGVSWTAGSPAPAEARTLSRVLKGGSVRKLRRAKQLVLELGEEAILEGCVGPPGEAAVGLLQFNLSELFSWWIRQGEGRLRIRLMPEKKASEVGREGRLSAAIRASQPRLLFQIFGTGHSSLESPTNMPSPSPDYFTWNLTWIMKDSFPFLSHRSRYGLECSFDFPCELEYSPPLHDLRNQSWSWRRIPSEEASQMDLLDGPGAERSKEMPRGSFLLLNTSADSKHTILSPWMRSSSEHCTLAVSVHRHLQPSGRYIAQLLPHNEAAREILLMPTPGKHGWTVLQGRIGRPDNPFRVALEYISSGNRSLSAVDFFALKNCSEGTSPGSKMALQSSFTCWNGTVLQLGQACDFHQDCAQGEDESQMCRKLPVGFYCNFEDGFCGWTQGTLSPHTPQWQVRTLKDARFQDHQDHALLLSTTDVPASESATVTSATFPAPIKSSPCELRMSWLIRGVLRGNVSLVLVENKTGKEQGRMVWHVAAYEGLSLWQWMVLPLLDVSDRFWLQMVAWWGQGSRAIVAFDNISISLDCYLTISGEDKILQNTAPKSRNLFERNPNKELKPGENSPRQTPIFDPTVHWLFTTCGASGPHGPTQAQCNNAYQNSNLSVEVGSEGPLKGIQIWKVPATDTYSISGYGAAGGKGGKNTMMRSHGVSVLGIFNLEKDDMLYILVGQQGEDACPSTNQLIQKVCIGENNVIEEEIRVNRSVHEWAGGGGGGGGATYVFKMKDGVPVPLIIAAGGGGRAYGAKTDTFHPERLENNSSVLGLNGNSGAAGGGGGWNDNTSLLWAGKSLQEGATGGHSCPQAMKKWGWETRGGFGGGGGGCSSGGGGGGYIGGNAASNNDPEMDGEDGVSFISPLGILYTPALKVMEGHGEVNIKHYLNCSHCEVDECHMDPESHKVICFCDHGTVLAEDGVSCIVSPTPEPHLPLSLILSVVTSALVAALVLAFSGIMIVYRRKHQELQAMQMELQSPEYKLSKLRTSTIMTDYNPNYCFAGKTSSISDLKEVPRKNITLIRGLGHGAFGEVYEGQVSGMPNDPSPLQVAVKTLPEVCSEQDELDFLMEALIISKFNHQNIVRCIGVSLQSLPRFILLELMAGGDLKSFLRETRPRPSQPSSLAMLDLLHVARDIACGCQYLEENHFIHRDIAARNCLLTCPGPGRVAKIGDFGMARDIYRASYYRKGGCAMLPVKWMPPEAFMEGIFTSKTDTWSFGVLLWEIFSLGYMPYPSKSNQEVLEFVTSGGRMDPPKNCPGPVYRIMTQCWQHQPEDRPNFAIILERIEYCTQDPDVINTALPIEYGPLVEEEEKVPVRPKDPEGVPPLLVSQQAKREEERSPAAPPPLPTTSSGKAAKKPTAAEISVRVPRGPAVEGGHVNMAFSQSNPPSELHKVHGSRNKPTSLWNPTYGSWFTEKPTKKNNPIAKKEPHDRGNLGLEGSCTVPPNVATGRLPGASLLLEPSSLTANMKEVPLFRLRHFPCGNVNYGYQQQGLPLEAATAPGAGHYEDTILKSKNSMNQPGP

[16] = target: Epidermal growth factor receptor (Homo sapiens, UniProt P00533); assay: Selectivity interaction (TR-FRET binding assay) EUB0000644a EGFR
[17] = target: Voltage-dependent L-type calcium channel subunit alpha-1C (Homo sapiens, UniProt Q13936); assay: Selectivity interaction (CEREP selectivity screen) EUB0000318b CACNA1C; details: at 10 µM
[18] = target: T1, 4-aminobutyrate aminotransferase, mitochondrial (Homo sapiens, UniProt P80404); assay: (§1) Selectivity interaction (GPCR panel (PDSP screen)) EUB0000318b ABAT; details: at 10 µM
T1 sequence (P80404 whole entry): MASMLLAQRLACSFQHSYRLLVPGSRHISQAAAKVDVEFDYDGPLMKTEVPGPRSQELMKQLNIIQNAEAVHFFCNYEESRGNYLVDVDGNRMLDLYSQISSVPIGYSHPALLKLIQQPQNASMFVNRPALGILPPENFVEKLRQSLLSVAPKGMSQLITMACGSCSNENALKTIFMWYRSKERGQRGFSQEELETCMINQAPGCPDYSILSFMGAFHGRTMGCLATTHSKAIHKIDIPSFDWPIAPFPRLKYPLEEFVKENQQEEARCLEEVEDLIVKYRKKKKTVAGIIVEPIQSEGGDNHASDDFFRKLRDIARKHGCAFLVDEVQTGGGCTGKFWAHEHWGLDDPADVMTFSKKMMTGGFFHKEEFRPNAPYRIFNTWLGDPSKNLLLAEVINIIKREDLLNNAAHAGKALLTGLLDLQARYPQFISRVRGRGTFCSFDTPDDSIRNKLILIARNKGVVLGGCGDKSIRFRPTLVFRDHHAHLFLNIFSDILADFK

[19] = target: T2, Mitogen-activated protein kinase kinase kinase 5 (Homo sapiens) (UniProt Q99683); assay: Selectivity interaction (KinomeScan (DiscoverX)) EUB0000318b MAP3K5; details: at 1 µM
T2 sequence (whole entry): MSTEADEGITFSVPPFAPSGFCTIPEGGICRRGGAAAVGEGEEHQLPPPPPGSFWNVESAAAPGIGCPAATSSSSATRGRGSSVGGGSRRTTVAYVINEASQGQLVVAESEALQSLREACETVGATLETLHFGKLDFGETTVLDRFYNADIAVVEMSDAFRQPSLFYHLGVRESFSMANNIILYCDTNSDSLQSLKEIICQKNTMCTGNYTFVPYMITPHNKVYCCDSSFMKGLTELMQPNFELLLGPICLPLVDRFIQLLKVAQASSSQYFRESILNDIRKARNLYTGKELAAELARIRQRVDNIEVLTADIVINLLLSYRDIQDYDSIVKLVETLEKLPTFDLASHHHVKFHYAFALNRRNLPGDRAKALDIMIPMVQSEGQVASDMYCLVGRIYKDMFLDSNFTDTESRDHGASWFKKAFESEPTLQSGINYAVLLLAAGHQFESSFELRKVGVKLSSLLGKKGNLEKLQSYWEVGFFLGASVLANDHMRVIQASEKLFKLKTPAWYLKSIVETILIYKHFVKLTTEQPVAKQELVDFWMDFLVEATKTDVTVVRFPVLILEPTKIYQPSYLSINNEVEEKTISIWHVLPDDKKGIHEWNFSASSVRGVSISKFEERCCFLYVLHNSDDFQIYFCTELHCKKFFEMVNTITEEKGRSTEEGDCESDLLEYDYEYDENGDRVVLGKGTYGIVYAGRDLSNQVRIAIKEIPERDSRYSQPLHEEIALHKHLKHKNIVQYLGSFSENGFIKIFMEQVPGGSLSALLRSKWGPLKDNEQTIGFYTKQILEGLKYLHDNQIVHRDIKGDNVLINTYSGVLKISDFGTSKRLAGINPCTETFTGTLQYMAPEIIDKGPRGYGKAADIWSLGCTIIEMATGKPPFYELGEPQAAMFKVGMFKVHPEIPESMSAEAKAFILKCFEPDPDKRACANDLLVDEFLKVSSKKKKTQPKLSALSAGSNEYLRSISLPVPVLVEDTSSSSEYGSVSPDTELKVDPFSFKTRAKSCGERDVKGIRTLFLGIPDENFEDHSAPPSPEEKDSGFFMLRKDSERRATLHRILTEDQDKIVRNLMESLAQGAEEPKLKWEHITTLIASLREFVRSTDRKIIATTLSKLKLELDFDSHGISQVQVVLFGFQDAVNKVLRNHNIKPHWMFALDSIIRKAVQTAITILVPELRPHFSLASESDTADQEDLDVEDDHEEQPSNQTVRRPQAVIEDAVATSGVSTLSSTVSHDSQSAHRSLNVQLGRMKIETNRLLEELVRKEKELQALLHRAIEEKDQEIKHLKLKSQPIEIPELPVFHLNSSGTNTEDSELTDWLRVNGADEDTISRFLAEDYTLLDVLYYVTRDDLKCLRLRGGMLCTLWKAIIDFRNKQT

[20] = target: 5-hydroxytryptamine receptor 2A (Homo sapiens, UniProt P28223); assay: Selectivity interaction (CEREP selectivity screen) EUB0000318b HTR2A; details: at 10 µM
[21] = target: T3, Serine/threonine-protein kinase Nek1 (Homo sapiens) (UniProt Q96PY6); assay: Selectivity interaction (KinomeScan (DiscoverX)) EUB0000318b NEK1; details: at 1 µM
T3 sequence (whole entry): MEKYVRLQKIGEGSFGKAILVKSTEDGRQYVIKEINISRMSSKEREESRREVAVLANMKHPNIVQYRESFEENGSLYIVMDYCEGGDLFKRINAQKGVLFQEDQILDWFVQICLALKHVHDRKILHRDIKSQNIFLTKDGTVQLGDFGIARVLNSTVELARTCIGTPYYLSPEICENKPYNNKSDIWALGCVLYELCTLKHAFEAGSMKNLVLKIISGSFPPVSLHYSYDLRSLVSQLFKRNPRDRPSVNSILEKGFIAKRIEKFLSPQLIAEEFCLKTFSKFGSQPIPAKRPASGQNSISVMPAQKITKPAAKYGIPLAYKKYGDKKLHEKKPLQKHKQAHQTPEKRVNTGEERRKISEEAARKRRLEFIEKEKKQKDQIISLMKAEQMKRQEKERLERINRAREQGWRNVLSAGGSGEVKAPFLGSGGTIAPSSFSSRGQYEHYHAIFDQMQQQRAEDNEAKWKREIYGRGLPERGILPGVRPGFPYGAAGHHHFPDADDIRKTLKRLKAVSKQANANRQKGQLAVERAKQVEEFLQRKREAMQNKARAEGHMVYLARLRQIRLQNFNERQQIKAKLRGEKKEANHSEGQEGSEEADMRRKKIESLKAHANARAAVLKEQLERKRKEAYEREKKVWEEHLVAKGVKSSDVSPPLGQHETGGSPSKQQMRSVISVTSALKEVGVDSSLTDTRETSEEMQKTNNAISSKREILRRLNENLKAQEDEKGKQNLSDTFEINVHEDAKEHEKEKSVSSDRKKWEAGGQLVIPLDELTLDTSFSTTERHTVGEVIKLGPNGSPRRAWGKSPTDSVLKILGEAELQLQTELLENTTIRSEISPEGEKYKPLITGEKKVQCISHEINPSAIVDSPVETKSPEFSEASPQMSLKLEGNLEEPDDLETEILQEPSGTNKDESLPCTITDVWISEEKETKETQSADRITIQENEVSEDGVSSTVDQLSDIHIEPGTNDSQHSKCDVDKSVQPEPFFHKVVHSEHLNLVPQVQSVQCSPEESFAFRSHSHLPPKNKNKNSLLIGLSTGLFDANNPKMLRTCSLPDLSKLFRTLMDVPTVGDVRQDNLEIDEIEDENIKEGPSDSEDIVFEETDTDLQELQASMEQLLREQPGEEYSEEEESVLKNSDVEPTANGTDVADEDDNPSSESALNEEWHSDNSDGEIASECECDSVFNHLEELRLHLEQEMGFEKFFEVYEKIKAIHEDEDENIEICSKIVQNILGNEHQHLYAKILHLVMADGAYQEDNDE

[22] = target: Sodium-dependent noradrenaline transporter (Homo sapiens, UniProt P23975); assay: Selectivity interaction (CEREP selectivity screen) EUB0000318b SLC6A2; details: at 10 µM
Chain of Sodium-dependent noradrenaline transporter (P23975 whole entry): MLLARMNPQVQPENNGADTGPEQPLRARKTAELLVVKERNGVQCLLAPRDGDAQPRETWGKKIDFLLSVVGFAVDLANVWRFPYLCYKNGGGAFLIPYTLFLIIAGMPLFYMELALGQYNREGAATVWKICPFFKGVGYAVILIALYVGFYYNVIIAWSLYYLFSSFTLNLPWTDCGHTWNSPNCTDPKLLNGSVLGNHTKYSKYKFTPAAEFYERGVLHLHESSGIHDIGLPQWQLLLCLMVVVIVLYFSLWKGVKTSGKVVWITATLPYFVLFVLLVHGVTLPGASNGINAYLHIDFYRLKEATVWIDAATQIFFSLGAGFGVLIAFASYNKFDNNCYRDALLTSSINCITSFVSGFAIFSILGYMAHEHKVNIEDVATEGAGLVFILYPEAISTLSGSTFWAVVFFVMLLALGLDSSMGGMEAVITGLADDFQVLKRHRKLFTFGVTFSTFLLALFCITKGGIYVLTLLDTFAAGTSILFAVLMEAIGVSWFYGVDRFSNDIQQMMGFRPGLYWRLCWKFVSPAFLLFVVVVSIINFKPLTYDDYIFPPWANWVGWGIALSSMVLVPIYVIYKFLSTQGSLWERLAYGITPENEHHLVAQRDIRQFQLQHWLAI

[23] = target: Sigma non-opioid intracellular receptor 1 (Homo sapiens) (UniProt Q99720); assay: Selectivity interaction (GPCR panel (PDSP screen)) EUB0000318b SIGMAR1; details: at 10 µM
[24] = target: Sodium channel regulatory subunit beta-1 (Homo sapiens) (UniProt Q07699); assay: Selectivity interaction (CEREP selectivity screen) EUB0000318b SCN1B; details: at 10 µM
[25] = target: T1, 4-aminobutyrate aminotransferase, mitochondrial; assay: as §1

Chain of Tyrosine-protein kinase Lck (P06239 whole entry): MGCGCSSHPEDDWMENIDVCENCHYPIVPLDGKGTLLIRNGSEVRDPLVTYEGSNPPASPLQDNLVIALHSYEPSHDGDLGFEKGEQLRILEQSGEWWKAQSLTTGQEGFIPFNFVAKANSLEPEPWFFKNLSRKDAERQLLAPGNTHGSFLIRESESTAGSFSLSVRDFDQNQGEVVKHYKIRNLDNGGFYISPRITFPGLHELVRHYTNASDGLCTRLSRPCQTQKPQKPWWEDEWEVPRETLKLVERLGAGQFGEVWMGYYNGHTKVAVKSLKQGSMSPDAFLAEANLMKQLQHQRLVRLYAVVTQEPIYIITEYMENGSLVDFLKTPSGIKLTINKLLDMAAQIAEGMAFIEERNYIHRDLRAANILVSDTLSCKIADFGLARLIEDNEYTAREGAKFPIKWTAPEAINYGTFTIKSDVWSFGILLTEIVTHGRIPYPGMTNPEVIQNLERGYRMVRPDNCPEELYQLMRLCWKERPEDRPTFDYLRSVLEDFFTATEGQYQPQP

Structure (SMILES): CC[C@@H]1CN(C(=O)NCC(F)(F)F)C[C@@H]1c1cnc2cnc3[nH]ccc3n12 [UPADACITINIB]
IC50 [1]: 10 µM | IC50 [2]: 1500 nM | IC50 (CDK8/Cyclin C): > 10 µM | IC50 [3]: > 10 µM | IC50 [4]: > 10 µM | IC50 [5]: 9.6 µM | IC50 [6]: > 10 µM | IC50 [7]: 4.5 µM | IC50 (Aurora kinase B): 5.5 µM | IC50 [8]: > 10 µM | IC50 [9]: > 10 µM | IC50 [10]: > 10 µM | IC50 [11]: > 10 µM | IC50 (CDK7/Cyclin H/MNAT1): > 10 µM | IC50 [12]: 7.9 µM | IC50 [13]: > 10 µM | IC50 [14]: > 10 µM | IC50 [15]: 5.5 µM | IC50 [16]: > 10 µM

% of inhibition [17]: 80% | % of inhibition [18]: 63.7% | % of control [19]: 13% | % of inhibition [20]: 55% | % of control [21]: 44% | % of inhibition [22]: 61% | % of inhibition [23]: 51.2% | % of inhibition [24]: 66% | Ki [25]: 2560 nM
Structure (SMILES): O=C(NC[C@@H]1[C@H]2CN(C(=O)OCc3cc(C(F)(F)F)cc(C(F)(F)F)c3)C[C@@H]12)c1ccc2[nH]nnc2c1 [BI 2545]
